Results: US20070073056A1, “4-Substituted Pyrazoline Compounds, their Preparation and Use as Medicaments” (LABORATORIOS DEL DR. ESTEVE, S.A., priority 2005, published 2007)

Molecular target: CB1-receptor (UniProt P20272)
Test: binding of the pyrazoline compounds to CB1-receptors (Pharmacological Methods, Part I)
Parameters: other: 10^−7 M; other: 10^−8 M; species or system human or rat
Description: I. In-vitro Determination of Affinity to CB1/CB2-Receptors
The in-vitro determination of the affinity of the inventive 4-substituted pyrazoline compounds to CB1/CB2-Rezeptors is carried out as described in the publication of Ruth A. Ross, Heather C. Brockie et al., “Agonist-inverse agonist characterisation at CB1 and CB2 cannabinoid receptors of L-759633, L759656 and AM630”, British Journal of Pharmacology, 126, 665-672, (1999), whereby the transfected human CB1 and CB2 receptors of Receptor Biology, Inc. are used. The radioligand used for both receptors is [^3H]-CP55940. The respective parts of the description is hereby incorporated by reference and forms part of the present disclosure.
Rat Cerebellum CB1 Binding
Binding affinity to CB1 receptor was evaluated according to a modification of the method described by Govaerts et al., Eur J Pharmac Sci 23, 233-243 (2004). The respective parts of the description is hereby incorporated by reference and forms part of the present disclosure.
Briefly, cerebellum from male wistar rats (250-300 g) were carefully dissected on ice and homogenates were prepared with Potter-Helveheim in a cold 50 mM Tris-HCl solution containing 5 mM MgCl2, 1 mM EDTA and 0.25 M sucrose, pH 7.4. The suspension was centrifuged at […] for 5 minutes. The supernatants were collected and centrifuged 50,000×g for 15 minutes. The resulting pellets were then resuspended in Tris-HCl buffer without sucrose, homogenized and incubated for 15 min at 37° C. in an orbital shaker bath and centrifuged again at 50,000×g for 15 min. Pellets were weighted, resuspended in Tris-HCl buffer without sucrose, homogenized with Ultraturrax at 13,500 rpm for 3×5 seconds and alicuoted in 0.9 ml volumes in Eppendorf tubes. Alicuotes were centrifuged at 20,800×g for 5 minutes, supernatants discarded and pellets were frozen at −80° C. until use. Total protein concentration was determined using the Bio-Rad Lowry method based kit. Competitive binding experiments were performed in presence of 1 nM [^3H]-CP 55,940 in siliconized glass tubes containing 100 μg protein/tube resuspended in 1 ml final volume of 50 mM Tris-HCl, 5 mM MgCl2, 1 mM EDTA, 0.5% (w/v) bovine serum albumin, pH 7.4. Compounds were present at various concentrations and the non specific binding was determined in the presence of 10 μM HU-210. After 1 hour incubation at 30° C., the suspension was rapidly filtered through 0.5% PEI pre-treated GF/B fiber filters on a 96-well harvester and washed 3 times with 3 ml ice-cold binding buffer without bovine serum albumin. Radioactivity on filters was measured with Wallac Winspectral 1414 counter by liquid scintillation in 6 ml Ecoscint H (National Diagnostics, U.K.). Assays were made in triplicates.
Binding data were analyzed by non-linear regression with the software GraphPad Prism Version 3.03.
The binding of the pyrazoline compounds of general formula I to CB1-receptors was determined according to the method described in the section Pharmacological Methods, Part I.

**Q.** Which Inhibition (10^−7 M) does the source give for `C[C@@H]1C(C(=O)N[C@@H]2CCCC[C@H]2OCc2ccccc2)=NN(c2ccc(Cl)cc2Cl)[C@@H]1c1ccc(Cl)cc1` (mixture of isomers) [Example 437, (−)-cis-N-((1R,2R)-2-(benzyloxy)cyclohexyl)-5-(4-chlorophenyl)-1-(2,4-dichlorophenyl)-4-methyl-4,5-dihydro-1H-pyrazole-3-carboxamide] here?
**A.** 40.9%

**Q.** And the Inhibition (10^−8 M, in %)?
**A.** 14.7

**Q.** How did the Inhibition (10^−7 M) turn out when `C[C@@H]1C(C(=O)NN2CCOCC2)=NN(c2ccc(Cl)cc2Cl)[C@@H]1c1ccc(Cl)cc1` (relative stereo) [Example 101, cis-5-(4-chlorophenyl)-1-(2,4-dichlorophenyl)-4-methyl-N-morpholino-4,5-dihydro-1H-pyrazole-3-carboxamide] was run?
**A.** 34.9%

**Q.** What about the Inhibition (10^−8 M, in %) of the same molecule?
**A.** 27.7

**Q.** What does the source list for `C[C@@H]1C(C(=O)N[C@H]2C[C@H]3CC[C@]2(C)C3(C)C)=NN(c2ccc(Cl)cc2Cl)[C@@H]1c1ccc(Cl)cc1` (mixture of isomers) [Example 422, cis-5-(4-chlorophenyl)-1-(2,4-dichlorophenyl)-4-methyl-N-((1R,2S,4R)-1,7,7-trimethylbicyclo[2.2.1]heptan-2-yl)-4,5-dihydro-1H-pyrazole-3-carboxamide]?
**A.** Inhibition (10^−7 M): −2%; Inhibition (10^−8 M, in %): −8.4

**Q.** What does the source list for `C[C@@H]1C(C(=O)NN2CCCCCCC2)=NN(c2ccc(Cl)cc2Cl)[C@@H]1c1ccc(Cl)cc1` (relative stereo) [Example 120, cis-N-(azocan-1-yl)-5-(4-chlorophenyl)-1-(2,4-dichlorophenyl)-4-methyl-4,5-dihydro-1H-pyrazole-3-carboxamide]?
**A.** Inhibition (10^−7 M): 75.5%; Inhibition (10^−8 M, in %): 37

**Q.** With `C[C@H]1C(C(=O)NN2CCc3ccccc32)=NN(c2ccc(Cl)cc2Cl)[C@H]1c1ccc(F)cc1` (relative stereo) [Example 235, cis-1-(2,4-dichlorophenyl)-5-(4-fluorophenyl)-N-(indolin-1-yl)-4-methyl-4,5-dihydro-1H-pyrazole-3-carboxamide] as the molecule, how does the Inhibition (10^−7 M) read?
**A.** 25.9%

**Q.** And the Inhibition (10^−8 M, in %)?
**A.** 5.4

**Q.** Which results are given for `CC1C(C(=O)O)=NN(c2ccc(Cl)cc2Cl)C1c1ccccc1` (centres unmarked) [Example 429, 1-(2,4-dichlorophenyl)-4-methyl-5-phenyl-4,5-dihydro-1H-pyrazole-3-carboxylic acid]?
**A.** Inhibition (10^−7 M): −11%; Inhibition (10^−8 M, in %): −10.1

**Q.** What does the source list for `C[C@H]1C(C(=O)O)=NN(c2ccc(Cl)cc2Cl)[C@H]1c1ccc(F)cc1` (racemic) [Example 221, cis-1-(2,4-dichlorophenyl)-5-(4-fluorophenyl)-4-methyl-4,5-dihydro-1H-pyrazole-3-carboxylic acid]?
**A.** Inhibition (10^−7 M): −6.3%; Inhibition (10^−8 M, in %): −2.2

**Q.** Which Inhibition (10^−7 M) does the source give for `COC[C@@H]1CCCN1NC(=O)C1=NN(c2ccc(Cl)cc2Cl)[C@H](c2ccc(Cl)cc2)[C@@H]1C.Cl` (mixture of isomers) [Example 107, cis-5-(4-chlorophenyl)-1-(2,4-dichlorophenyl)-N-((S)-2-(methoxymethyl)pyrrolidin-1-yl)-4-methyl-4,5-dihydro-1H-pyrazole-3-carboxamide hydrochloride] here?
**A.** 43.9%

**Q.** And the Inhibition (10^−8 M, in %)?
**A.** 2.7

**Q.** For `COc1ccc([C@@H]2[C@@H](C)C(C(=O)O)=NN2c2ccc(Cl)cc2Cl)cc1` [Example 412, (4R,5S)-1-(2,4-dichlorophenyl)-5-(4-methoxyphenyl)-4-methyl-4,5-dihydro-1H-pyrazole-3-carboxylic acid], which Inhibition (10^−7 M) is on record?
**A.** −15.4%

**Q.** What about the Inhibition (10^−8 M, in %) of the same molecule?
**A.** −11.1

**Q.** Which Inhibition (10^−7 M) does the source give for `C[C@@H]1C(C(=O)O)=NN(c2ccc(Cl)cc2Cl)[C@H]1c1ccc(Br)cc1` (relative stereo) [Example 200, trans-5-(4-bromophenyl)-1-(2,4-dichlorophenyl)-4-methyl-4,5-dihydro-1H-pyrazole-3-carboxylic acid] here?
**A.** −11.2%

**Q.** And the Inhibition (10^−8 M, in %)?
**A.** 3
